# Target: recombinant human integrin αvβ6 (Homo sapiens (Human), UniProt P06756+P18564)
# Assay: Solid phase integrin αvβ6 binding assay
# Details: plate-coated integrin; recombinant TGFβ1 LAP 0.67 ug/ml as ligand; 2 hours at 25° C.; read-out: αvβ6 Inhibition IC50 (nM) - range
# Method: Example B1—Solid Phase Integrin αvβ6 Binding Assay
# Microplates were coated with recombinant human integrin αvβ6 (2 ug/ml) in PBS (100 ul/well 25° C., overnight). The coating solution was removed, washed with wash buffer (0.05% Tween 20; 0.5 mM MnCl2; in 1×TBS). Plate was blocked with 200 ul/well of Block Buffer (1% BSA; 5% sucrose; 0.5 mM MnCl2; in 1×TBS) at 37° C. for 2 h. Dilutions of testing compounds and recombinant TGFβ1 LAP (0.67 ug/ml) in binding buffer (0.05% BSA; 2.5% sucrose; 0.5 mM MnCl2; in 1×TBS) were added. The plate was incubated for 2 hours at 25° C., washed, and incubated for 1 hour with Biotin-Anti-hLAP. Bound antibody was detected by peroxidase-conjugated streptavidin. The IC50 values for testing compounds were calculated by a four-parameter logistic regression.
# The compounds tested were compound samples prepared according to procedures described in the Synthetic Examples section, with the stereochemical purity as indicated in the Examples indicated.
# recombinant human integrin αvβ6, sequence (P06756 31-992): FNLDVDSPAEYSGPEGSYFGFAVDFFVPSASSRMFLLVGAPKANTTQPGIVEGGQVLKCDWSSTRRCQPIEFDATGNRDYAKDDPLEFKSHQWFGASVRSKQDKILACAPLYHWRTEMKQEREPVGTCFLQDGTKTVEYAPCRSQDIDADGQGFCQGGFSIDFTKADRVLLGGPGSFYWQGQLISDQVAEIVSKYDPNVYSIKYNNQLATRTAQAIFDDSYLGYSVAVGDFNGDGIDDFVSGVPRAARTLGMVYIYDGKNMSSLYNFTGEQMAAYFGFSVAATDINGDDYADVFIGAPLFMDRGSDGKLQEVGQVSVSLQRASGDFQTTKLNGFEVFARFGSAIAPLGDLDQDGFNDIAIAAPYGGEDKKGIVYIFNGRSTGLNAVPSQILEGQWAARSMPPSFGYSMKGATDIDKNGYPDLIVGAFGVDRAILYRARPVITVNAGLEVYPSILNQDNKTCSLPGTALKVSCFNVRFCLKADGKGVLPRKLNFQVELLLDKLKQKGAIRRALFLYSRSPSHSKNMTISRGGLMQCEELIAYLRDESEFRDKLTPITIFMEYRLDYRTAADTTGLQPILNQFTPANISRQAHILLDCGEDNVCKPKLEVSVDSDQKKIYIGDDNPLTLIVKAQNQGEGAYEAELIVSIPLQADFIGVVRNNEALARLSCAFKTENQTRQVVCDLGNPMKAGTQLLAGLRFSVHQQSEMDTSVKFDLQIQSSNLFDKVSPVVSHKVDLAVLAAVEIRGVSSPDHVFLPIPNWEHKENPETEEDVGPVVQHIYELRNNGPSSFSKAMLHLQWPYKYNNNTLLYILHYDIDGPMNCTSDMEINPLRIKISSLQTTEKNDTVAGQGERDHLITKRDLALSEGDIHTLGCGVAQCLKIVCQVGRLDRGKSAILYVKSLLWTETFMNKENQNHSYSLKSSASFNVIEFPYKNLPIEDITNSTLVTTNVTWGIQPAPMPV
# recombinant human integrin αvβ6, sequence (P18564 22-707): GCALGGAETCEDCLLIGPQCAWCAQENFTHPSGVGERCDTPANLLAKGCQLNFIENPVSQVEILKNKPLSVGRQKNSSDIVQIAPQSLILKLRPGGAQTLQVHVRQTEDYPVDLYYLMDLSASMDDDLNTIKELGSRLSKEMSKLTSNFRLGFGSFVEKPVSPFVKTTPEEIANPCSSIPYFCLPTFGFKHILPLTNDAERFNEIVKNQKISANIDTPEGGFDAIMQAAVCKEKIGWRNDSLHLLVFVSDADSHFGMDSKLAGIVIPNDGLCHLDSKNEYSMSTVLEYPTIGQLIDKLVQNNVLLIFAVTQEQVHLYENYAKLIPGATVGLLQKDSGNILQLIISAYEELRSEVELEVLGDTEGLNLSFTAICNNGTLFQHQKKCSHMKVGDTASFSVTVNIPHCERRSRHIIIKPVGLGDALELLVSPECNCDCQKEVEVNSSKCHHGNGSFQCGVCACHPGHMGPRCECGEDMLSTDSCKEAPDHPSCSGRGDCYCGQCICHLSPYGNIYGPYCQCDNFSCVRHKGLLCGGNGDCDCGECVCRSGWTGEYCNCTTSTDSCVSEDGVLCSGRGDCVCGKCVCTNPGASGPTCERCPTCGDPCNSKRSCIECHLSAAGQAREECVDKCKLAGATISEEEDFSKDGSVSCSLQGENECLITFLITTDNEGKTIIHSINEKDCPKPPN
row,SMILES,IC50
1,O=C(N[C@H](CCN1CC[C@@H](CCc2ccc3c(n2)NCCC3)C1)C(=O)O)c1cccc(-c2ncco2)c1 [Compound 88],< 50 nM
2,O=C(O)[C@H](CCN1CC[C@@H](CCc2ccc3c(n2)NCCC3)C1)NC(=O)[C@@H]1CCCN1CC1CC1 [Compound 91],50 to 250 nM
3,O=C(O)[C@H](CCN1CC[C@@H](CCc2ccc3c(n2)NCCC3)C1)NC(=O)[C@@H]1CCCN1CC1CCC1 [Compound 92],< 50 nM
4,CCC(CC)C(=O)N[C@@H](CCN1CCC[C@@](F)(CCc2ccc3c(n2)NCCC3)C1)C(=O)O [Compound 94],50 to 250 nM
5,CCC(CC)C(=O)N[C@@H](CCN1CC[C@@H](CCc2ccc3c(n2)NCCC3)C1)C(=O)O [Compound 95],< 50 nM
6,O=C(N[C@@H](CCN1CCC[C@@](F)(CCc2ccc3c(n2)NCCC3)C1)C(=O)O)c1cccc(N2CCOCC2)c1 [Compound 96],50 to 250 nM
7,O=C(N[C@@H](CCN1CCC[C@@](F)(CCc2ccc3c(n2)NCCC3)C1)C(=O)O)c1cc(F)cc(F)c1 [Compound 97],50 to 250 nM
8,Cc1nn(C)cc1-c1nn(C)c2c(C(=O)N[C@@H](CCN3CC[C@@H](CCc4ccc5c(n4)NCCC5)C3)C(=O)O)cccc12 [Compound 98],250 to 1000 nM
9,COCCOc1cccc(C(=O)N[C@@H](CCN2CCC[C@@](F)(CCc3ccc4c(n3)NCCC4)C2)C(=O)O)c1 [Compound 100],50 to 250 nM
10,O=C(N[C@@H](CCN1CCC[C@@](F)(CCc2ccc3c(n2)NCCC3)C1)C(=O)O)c1c(Cl)cccc1Cl [Compound 101],250 to 1000 nM
11,Cn1cc(-c2nn(C)c3c(C(=O)N[C@@H](CCN4CC[C@@H](CCc5ccc6c(n5)NCCC6)C4)C(=O)O)cccc23)cn1 [Compound 102],250 to 1000 nM
12,O=C(N[C@@H](CCN1CCC[C@](F)(CCc2ccc3c(n2)NCCC3)C1)C(=O)O)c1cccc(F)c1Cl [Compound 103],< 50 nM
13,O=C(N[C@@H](CCN1CCC[C@](F)(CCc2ccc3c(n2)NCCC3)C1)C(=O)O)c1cc(F)cc(F)c1 [Compound 104],< 50 nM
14,O=C(N[C@@H](CCN1CCC[C@@](F)(CCc2ccc3c(n2)NCCC3)C1)C(=O)O)c1cc(F)cc(C(F)(F)F)c1 [Compound 105],50 to 250 nM
15,Cn1ncc2ccc(C(=O)N[C@@H](CCN3CCC[C@@](F)(CCc4ccc5c(n4)NCCC5)C3)C(=O)O)cc21 [Compound 106],50 to 250 nM
16,O=C(N[C@@H](CCN1CCC[C@@](F)(CCc2ccc3c(n2)NCCC3)C1)C(=O)O)C1CCC(F)(F)CC1 [Compound 107],50 to 250 nM
17,CCC(CC)C(=O)N[C@@H](CCN1CCC[C@](F)(CCc2ccc3c(n2)NCCC3)C1)C(=O)O [Compound 108],250 to 1000 nM

row,SMILES,IC50
1,O=C(N[C@@H](CCN1CCC[C@](F)(CCc2ccc3c(n2)NCCC3)C1)C(=O)O)C1CCC(F)(F)CC1 [Compound 109],50 to 250 nM
2,Cn1ncc2ccc(C(=O)N[C@@H](CCN3CCC[C@](F)(CCc4ccc5c(n4)NCCC5)C3)C(=O)O)cc21 [Compound 110],< 50 nM
3,CC(C)(C)OC(=O)N[C@@H](CCN1CC[C@@H](OCc2ccc3c(n2)NCCC3)C1)C(=O)O [Compound 111],> 1000 nM
4,Cc1cc(C)n(-c2cccc(C(=O)N[C@@H](CCN3CC[C@@H](OCc4ccc5c(n4)NCCC5)C3)C(=O)O)c2)n1 [Compound 113],> 1000 nM
5,CC(=O)N1CCN(CC[C@H](NC(=O)c2ccccc2)C(=O)O)C[C@@H]1CCc1ccc2c(n1)NCCC2 [Compound 116],> 1000 nM
6,CC(C)(O)CC1NCCC1C(=O)N[C@@H](CCN1CC(OCCc2ccc3c(n2)NCCC3)C1)C(=O)O (stereo partly drawn) [Compound 134],250 to 1000 nM
7,O=C(N[C@@H](CCN1CC(CCc2ccc3c(n2)NCCC3)C1)C(=O)O)C1CCCN1Cc1ccccc1 (stereo partly drawn) [Compound 135],> 1000 nM
8,CC(C)(C(=O)N[C@@H](CCN1CC(CCc2ccc3c(n2)NCCC3)C1)C(=O)O)c1ccccc1 [Compound 136],> 1000 nM
9,CC(C)(Cc1ccccc1)C(=O)N[C@@H](CCN1CC(CCc2ccc3c(n2)NCCC3)C1)C(=O)O [Compound 137],> 1000 nM
10,O=C(N[C@@H](CCN1CC(CCc2ccc3c(n2)NCCC3)C1)C(=O)O)c1c(Cl)cccc1Cl [Compound 139],250 to 1000 nM
11,O=C(N[C@@H](CCN1C2CCC1C(CCc1ccc3c(n1)NCCC3)C2)C(=O)O)c1cc(F)cc(C(F)(F)F)c1 (stereo partly drawn) [Compound 140],> 1000 nM
12,O=C(N[C@@H](CCN1C2CCC1C(CCc1ccc3c(n1)NCCC3)C2)C(=O)O)c1cc(F)cc(C(F)(F)F)c1 (stereo partly drawn) [Compound 141],< 50 nM
13,O=C(O)[C@H](CCN1CC(CCc2ccc3c(n2)NCCC3)C1)NC(=O)[C@@H]1CCNC1Cc1ccccc1 (stereo partly drawn) [Compound 143],> 1000 nM
14,CC(C)(C(=O)N[C@@H](CCN1CC(CCc2ccc3c(n2)NCCC3)C1)C(=O)O)c1cccnc1 [Compound 144],> 1000 nM
15,CCC(CC)C(=O)N[C@@H](CCN1C2CCC1C(CCc1ccc3c(n1)NCCC3)C2)C(=O)O (stereo partly drawn) [Compound 145],> 1000 nM
16,O=C(N[C@@H](CCN1CC[C@H](CCc2ccc3c(n2)NCCC3)C1)C(=O)O)c1c(Cl)cccc1Cl [Compound 146],< 50 nM
17,O=C(N[C@H](CCN1CC[C@H](CCc2ccc3c(n2)NCCC3)C1)C(=O)O)c1c(Cl)cccc1Cl [Compound 147],> 1000 nM

# More lines, now with the values ahead:
row,IC50,SMILES
1,< 50 nM,O=C(O)[C@H](CCN1CC[C@@H](CCc2ccc3c(n2)NCCC3)C1)NC(=O)[C@@H]1COCCN1Cc1ccccc1 [Compound 89]
2,< 50 nM,O=C(O)[C@H](CCN1CC[C@@H](CCc2ccc3c(n2)NCCC3)C1)NC(=O)[C@@H]1CCCN1Cc1ncccn1 [Compound 90]
3,50 to 250 nM,O=C(O)[C@H](CCN1CC[C@@H](CCc2ccc3c(n2)NCCC3)C1)NC(=O)[C@@H]1CCCCN1Cc1ccccc1 [Compound 93]
4,< 50 nM,O=C(O)[C@H](CCN1CC[C@@H](CCc2ccc3c(n2)NCCC3)C1)NC(=O)[C@@H]1CCCN1Cc1cccnc1 [Compound 99]
5,> 1000 nM,O=C(N[C@@H](CCN1CC[C@@H](OCc2ccc3c(n2)NCCC3)C1)C(=O)O)c1ccccc1 [Compound 112]
6,250 to 1000 nM,O=C(N[C@@H](CCN1CC[C@@H](OCCc2ccc3c(n2)NCCC3)C1)C(=O)O)c1c(Cl)cccc1Cl [Compound 114]
7,< 50 nM,O=C(N[C@@H](CCN1CC(OCCc2ccc3c(n2)NCCC3)C1)C(=O)O)c1c(Cl)cccc1Cl [Compound 115]
8,250 to 1000 nM,O=C(N[C@@H](CCN1CC[C@@H](OCCc2ccc3c(n2)NCCC3)C1)C(=O)O)C1CCOCC1 [Compound 117]
9,250 to 1000 nM,CC(C)(C(=O)N[C@@H](CCN1CC[C@@H](OCCc2ccc3c(n2)NCCC3)C1)C(=O)O)c1ccccc1 [Compound 118]
10,250 to 1000 nM,CC(C)(Cc1ccccc1)C(=O)N[C@@H](CCN1CC[C@@H](OCCc2ccc3c(n2)NCCC3)C1)C(=O)O [Compound 119]
11,50 to 250 nM,CC(C)(C(=O)N[C@@H](CCN1CC(OCCc2ccc3c(n2)NCCC3)C1)C(=O)O)c1ccccc1 [Compound 120]
12,250 to 1000 nM,O=C(O)[C@H](CCN1CC[C@@H](OCCc2ccc3c(n2)NCCC3)C1)NC(=O)[C@@H]1CCCN1Cc1ccccc1 [Compound 121]
13,250 to 1000 nM,CC(C)(C(=O)N[C@@H](CCN1CC[C@@H](OCCc2ccc3c(n2)NCCC3)C1)C(=O)O)c1cccnc1 [Compound 122]
14,< 50 nM,O=C(O)[C@H](CCN1CC(OCCc2ccc3c(n2)NCCC3)C1)NC(=O)[C@@H]1CCCN1Cc1ccccc1 [Compound 123]
15,50 to 250 nM,O=C(N[C@@H](CCN1CC(OCCc2ccc3c(n2)NCCC3)C1)C(=O)O)C1CCOCC1 [Compound 124]
16,250 to 1000 nM,O=C(N[C@@H](CCN1CC[C@@H](OCCc2ccc3c(n2)NCCC3)C1)C(=O)O)[C@@H]1CCN(c2ccccn2)C1 [Compound 125]
17,> 1000 nM,O=C(N[C@@H](CCN1CC[C@@H](OCCc2ccc3c(n2)NCCC3)C1)C(=O)O)[C@H]1CCN(c2ccccn2)C1 [Compound 126]
18,< 50 nM,O=C(O)[C@H](CCN1CC(OCCc2ccc3c(n2)NCCC3)C1)NC(=O)[C@@H]1CCCN1c1ccccc1 [Compound 127]
19,250 to 1000 nM,CC(C)(C(=O)N[C@@H](CCN1CC(OCCc2ccc3c(n2)NCCC3)C1)C(=O)O)c1cccnc1 [Compound 128]
20,250 to 1000 nM,O=C(O)[C@H](CCN1CC(CCc2ccc3c(n2)NCCC3)C1)NC(=O)[C@@H]1CCCN1c1ccccc1 [Compound 129]
21,250 to 1000 nM,CC(C)(Cc1ccccc1)C(=O)N[C@@H](CCN1CC(OCCc2ccc3c(n2)NCCC3)C1)C(=O)O [Compound 130]
22,50 to 250 nM,O=C(N[C@@H](CCN1CC(OCCc2ccc3c(n2)NCCC3)C1)C(=O)O)[C@@H]1CCN(c2ccccn2)C1 [Compound 131]
23,50 to 250 nM,O=C(N[C@@H](CCN1CC(OCCc2ccc3c(n2)NCCC3)C1)C(=O)O)[C@H]1CCN(c2ccccn2)C1 [Compound 132]
24,250 to 1000 nM,O=C(O)[C@H](CCN1CC[C@@H](OCCc2ccc3c(n2)NCCC3)C1)NC(=O)[C@@H]1CCCN1c1ccccc1 [Compound 133]
25,250 to 1000 nM,O=C(N[C@@H](CCN1CC(CCc2ccc3c(n2)NCCC3)C1)C(=O)O)[C@H]1CCN(c2ccccn2)C1 [Compound 138]
26,> 1000 nM,CC(C)(O)CN1CCC[C@H]1C(=O)N[C@@H](CCN1CC[C@@H](OCCc2ccc3c(n2)NCCC3)C1)C(=O)O [Compound 142]
